From patent US8912144B2, “Method for treating stroke via administration of NEP1-40 and inosine” (Children's Medical Center Corporation, priority 2003, dated 2014)

Tested on: corticospinal neurons (CSNs/CSMNs)
Assay: Laser-capture microdissection and Illumina microarray gene expression in corticospinal neurons contralateral to stroke
Type: in vivo, rat
Description: In a separate group of animals (n=20), layer V pyramidal cells of the sensorimotor cortex were retrogradely labeled by injecting Alexa-Fluor-488-conjugated cholera toxin B subunit (CTB; 300 U/μl in sterile saline) into the cervical spinal cord. For this, animals were anesthetized with a combination of ketamine and Domitor (medetomidine) and a laminectomy was performed at the cervical level of the spinal cord (C2-C4). CTB was stereotaxically delivered into four sites lateral to the corticospinal tract. Injections (1.3 μl) were spaced 1 mm apart on the rostro-caudal axis, and were made 0.5 mm to the left and right of the midline. After allowing two weeks for transport of the tracer, we performed either sham surgery with no treatment (n=6) or stroke surgery combined with saline (n=3) or inosine (n=4) treatment as described above. Seven days later, animals were decapitated under transient gas anesthesia, brains were removed and rinsed in cold RPMI medium, and a tissue block containing the sensorimotor cortex was dissected and placed in OCT Tissue Tek Medium (Sakura Finetek USA Inc., CA) on dry ice within five minutes of death. Ten μm sections were cut onto precleaned Gold Seal RITE-ON glass slides (Gold Seal Prod-ucts, Portsmouth, N.H.), placed on dry ice, and rapidly stored at −80° C.
Slide-mounted sections were thawed and dehydrated in RNAse-free ethanol gradients and xylene. Retro-gradely labeled, fluorescent cortical pyramidal cells in the undamaged hemisphere were individually captured using the Arcturus VERITAS system. ≧500 cells were collected from each animal and stored in Arcturus extraction buffer at −80° C. Total RNA was extracted from cells using the Micro-to-Midi TotalRNA Purification System (Invitrogen, Carlsbad Calif.) and double-amplified using the TargetAmp 2-Round Aminoallyl-aRNA Amplification kit 1.0 (Epicentre, Madison, Wis.). Amplified RNA was checked for average fragment length using the Agilent RNA 6000 Nano LabChip kit (Agilent Technologies, Santa Clara, Calif.) and then biotinylated and hybridized (1 μg) on Illumina RatRef-12 Expression BeadChip arrays (Illumina, San Diego Calif.), querying the expression of >22,000 RefSeq-curated rat transcripts. Results were obtained from a total of 15 samples representing 6 untreated controls, 4 animals with stroke treated with saline and 5 animals with stroke treated with inosine. Slides were processed and scanned with Illumina BeadStation platform according to the manufacturer protocol.
Raw data was analyzed using Bioconductor packages (www.bioconductor.org, (Gentleman et al., 2004)). Low level quality-control analysis was performed using inter-array Pearson correlation and clustering based on variance. Two arrays (1 saline and 1 inosine-treated) were outliers and were excluded from the analysis. Data was normalized using quantile normalization, and analysis of differential expression was performed using a linear model fitting (LIMMA package, (Smyth, 2005). Differentially expressed genes were classified according to gene ontology using Bioconductor packages and online tools (DAVID, http://david.abcc.ncifcrf.gov/). Pathway analysis was carried out using Ingenuity Pathway Analysis (Ingenuity Systems, www.ingenuity.com).

## OC[C@H]1O[C@@H](n2cnc3c(O)ncnc32)[C@H](O)[C@@H]1O [inosine]
ILMN_48507, inosine after stroke
  Signal Intensity, Sfrs10: 2745
ILMN_48587
  Fold-Induction Stroke, ino vs. cntrl, Scarb2: 0.71
ILMN_48587, inosine after stroke
  Signal Intensity, Scarb2: 569
ILMN_48688
  Fold-Induction Stroke, ino vs. cntrl, Sec6l1: 0.84
ILMN_48688, inosine after stroke
  Signal Intensity, Sec6l1: 587
ILMN_49300
  Fold-Induction Stroke, ino vs. cntrl, Ube4a: 0.58
ILMN_49300, inosine after stroke
  Signal Intensity, Ube4a: 1509
ILMN_49366
  Fold-Induction Stroke, ino vs. cntrl, LOC501195: 0.77
ILMN_49366, inosine after stroke
  Signal Intensity, LOC501195: 1460
ILMN_49569
  Fold-Induction Stroke, ino vs. cntrl, Kcnc2: 0.73
ILMN_49569, inosine after stroke
  Signal Intensity, Kcnc2: 4642
ILMN_49739
  Fold-Induction Stroke, ino vs. cntrl, Arfrp1: 0.93
ILMN_49739, inosine after stroke
  Signal Intensity, Arfrp1: 1014
ILMN_49819
  Fold-Induction Stroke, ino vs. cntrl, Dmp1: 0.38
ILMN_49819, inosine after stroke
  Signal Intensity, Dmp1: 267
ILMN_49884
  Fold-Induction Stroke, ino vs. cntrl, Ralbp1: 0.75
ILMN_49884, inosine after stroke
  Signal Intensity, Ralbp1: 1553
ILMN_50221
  Fold-Induction Stroke, ino vs. cntrl, Snx2: 0.66
ILMN_50221, inosine after stroke
  Signal Intensity, Snx2: 1681
ILMN_50467
  Fold-Induction Stroke, ino vs. cntrl, Rpn2: 0.71
ILMN_50467, inosine after stroke
  Signal Intensity, Rpn2: 835
ILMN_50573
  Fold-Induction Stroke, ino vs. cntrl, RAMP4: 0.75
ILMN_50573, inosine after stroke
  Signal Intensity, RAMP4: 544
ILMN_50686
  Fold-Induction Stroke, ino vs. cntrl, Cdc37l: 0.83
ILMN_50686, inosine after stroke
  Signal Intensity, Cdc37l: 625
ILMN_50922
  Fold-Induction Stroke, ino vs. cntrl, LOC498489: 0.49
ILMN_50922, inosine after stroke
  Signal Intensity, LOC498489: 603
ILMN_50967
  Fold-Induction Stroke, ino vs. cntrl, Ube2m: 0.59
ILMN_50967, inosine after stroke
  Signal Intensity, Ube2m: 332
ILMN_51108
  Fold-Induction Stroke, ino vs. cntrl, LOC499428: 0.50
ILMN_51108, inosine after stroke
  Signal Intensity, LOC499428: 678
ILMN_51249, LCM-captured CSMNs contralateral a stroke
  Fold-Induction, complement cascade gene C3: 2.17 fold
ILMN_51277, over and above inosine's effect of decreasing stroke-induced changes
  Fold-induction CSMNs: LOC305633, (P) Antxr2 protein: 3.13 fold
ILMN_51588
  Fold-Induction Stroke, ino vs. cntrl, Ik: 0.83
ILMN_51588, inosine after stroke
  Signal Intensity, Ik: 417
ILMN_51716
  Fold-Induction Stroke, ino vs. cntrl, LOC499767: 0.64
ILMN_51716, inosine after stroke
  Signal Intensity, LOC499767: 1723
ILMN_51717
  Fold-Induction Stroke, ino vs. cntrl, LOC497777: 0.58
ILMN_51717, inosine after stroke
  Signal Intensity, LOC497777: 577
ILMN_51868
  Fold-Induction Stroke, ino vs. cntrl, Tspan3: 0.47
ILMN_51868, inosine after stroke
  Signal Intensity, Tspan3: 3842
ILMN_51947
  Fold-Induction Stroke, ino vs. cntrl, LOC360807: 0.50
ILMN_51947, inosine after stroke
  Signal Intensity, LOC360807: 689
ILMN_51968
  Fold-Induction Stroke, ino vs. cntrl, LOC498931: 0.54
ILMN_51968, inosine after stroke
  Signal Intensity, LOC498931: 554
ILMN_51972
  Fold-Induction Stroke, ino vs. cntrl, LOC501619: 0.59
ILMN_51972, inosine after stroke
  Signal Intensity, LOC501619: 416
ILMN_52257
  Fold-Induction Stroke, ino vs. cntrl, Scd2: 0.42
ILMN_52257, inosine after stroke
  Signal Intensity, Scd2: 3009
ILMN_52577
  Fold-Induction Stroke, ino vs. cntrl, LOC317508: 0.58
ILMN_52577, inosine after stroke
  Signal Intensity, LOC317508: 493
ILMN_52827
  Fold-Induction Stroke, ino vs. cntrl, Nedd9: 0.73
ILMN_52827, inosine after stroke
  Signal Intensity, Nedd9: 550
ILMN_52968
  Fold-Induction Stroke, ino vs. cntrl, Atp6v1h: 0.62
ILMN_52968, inosine after stroke
  Signal Intensity, Atp6v1h: 525
ILMN_52985
  Fold-Induction Stroke, ino vs. cntrl, MGC94339: 0.70
ILMN_52985, inosine after stroke
  Signal Intensity, MGC94339: 547
ILMN_53046
  Fold-Induction Stroke, ino vs. cntrl, Ube2e3: 0.61
ILMN_53046, inosine after stroke
  Signal Intensity, Ube2e3: 434
ILMN_53076
  Fold-Induction Stroke, ino vs. cntrl, Arpc3: 0.68
ILMN_53076, inosine after stroke
  Signal Intensity, Arpc3: 423
ILMN_53085, over and above inosine's effect of decreasing stroke-induced changes
  Fold-induction CSMNs: Irf1: 1.83 fold
ILMN_53195
  Fold-Induction Stroke, ino vs. cntrl, LOC309362: 1.02
ILMN_53195, inosine after stroke
  Signal Intensity, LOC309362: 498
ILMN_53256
  Fold-Induction Stroke, ino vs. cntrl, Hat1: 0.69
ILMN_53256, inosine after stroke
  Signal Intensity, Hat1: 362
ILMN_53292
  Fold-Induction Stroke, ino vs. cntrl, LOC499978: 0.72
ILMN_53292, inosine after stroke
  Signal Intensity, LOC499978: 970
ILMN_53325, over and above inosine's effect of decreasing stroke-induced changes
  Fold-induction CSMNs: LOC498335, (P) Small inducible cytokine B13 precursor (CXCL13): 11.42 fold
ILMN_53575, over and above inosine's effect of decreasing stroke-induced changes
  Fold-induction CSMNs: Mt1a (Metallothionein): 2.69 fold
ILMN_53694
  Fold-Induction Stroke, ino vs. cntrl, Cnbp1: 0.76
ILMN_53694, inosine after stroke
  Signal Intensity, Cnbp1: 4491
ILMN_53763
  Fold-Induction Stroke, ino vs. cntrl, MGC94053: 0.59
